The text below walks through data of ChEMBL document CHEMBL4483862, “Open-source discovery of chemical leads for next-generation chemoprotective antimalarials” (2018).

By pIC50 is commonly meant the IC50 on a negative log10 scale, so that one unit is a factor of ten. One may read the IC90 as the concentration at which the effect reaches the 90% level.

The test concerns Plasmodium berghei. The test can be described thus: Luciferase/luciferin-expressing antifolate-resistant parasites were used to infect a culture of HepG2 cells that were pre-incubated with compounds. Infected hepatocytes emit light due to the luciferase reaction. Assay results are presented as the percent inhibition of light emission compared to control. […]. The format is functional. As to conditions: sporozoite; for IC90: read-out: LUCIFERASE INFECTION ASSAY - IC90.

pIC50: −log10 of the molar value.

With `OC(COc1ccc2cc(Br)ccc2c1)CN1CCCC1` (stereo not drawn), the 90% effect concentration (IC90) was over 9.42 µM. For the same compound, where the note is “FFLUC_HILL_SLOPE 1.55, FFLUC_R_SQUARED 0.115, PBLUC_HILL_SLOPE 1.17, PBLUC_R_SQUARED 0.42, read-out: LUCIFERASE INFECTION ASSAY - IC50”, the pIC50 was 5.33.
As for `COCCn1c(C)cc(C(=O)CSc2nnc(C)s2)c1C`, the IC90 is over 10.1 µM. For the setting “FFLUC_HILL_SLOPE 1.54, FFLUC_R_SQUARED 0.663, PBLUC_HILL_SLOPE 0.577, PBLUC_R_SQUARED 0.574, read-out: LUCIFERASE INFECTION ASSAY - IC50”, the negative-log IC50 (pIC50) was 6.38.
As to `CCCCCCCCCCCc1n[nH]c(=S)n1-c1ccccc1C(F)(F)F`, the concentration for an effect of 90% (IC90) was over 8.26 µM. Also, the pIC50 (FFLUC_HILL_SLOPE 1.62, FFLUC_R_SQUARED 0.783, read-out: LUCIFERASE INFECTION ASSAY - IC50) was under 5.08.
`O=C(/C=c1/[nH]c(=O)/c(=C/c2ccc(-c3ccccc3F)s2)s1)c1ccncc1`: the concentration for an effect of 90% (IC90) is over 10 µM. For the same compound, the pIC50 (FFLUC_HILL_SLOPE 1.61, FFLUC_R_SQUARED 0.374, read-out: LUCIFERASE INFECTION ASSAY - IC50) is under 5.00.
Regarding `CSc1nnc(SC2=CC(=O)CC(c3ccccc3)C2)s1` (stereo not drawn), the IC90 is over 9.87 µM. Further, under “FFLUC_HILL_SLOPE 1.55, FFLUC_R_SQUARED 0.208, HEPG2TOX_HILL_SLOPE 8.38, HEPG2TOX_R_SQUARED 0.886, read-out: LUCIFERASE INFECTION ASSAY - IC50”, the negative-log IC50 (pIC50) was under 5.01.
Consider `COC(=O)c1c(C)[nH]c(C2=NNC(=NC3CC3)SC2)c1C`, for which the IC90 came out at 0.0583 µM. Where the note is “FFLUC_HILL_SLOPE 1.61, FFLUC_R_SQUARED 0.895, PBLUC_HILL_SLOPE 1.62, PBLUC_R_SQUARED 0.572, read-out: LUCIFERASE INFECTION ASSAY - IC50”, the negative-log IC50 (pIC50) was 7.82.
On to `OC1CCC(Nc2nn3cc(-c4ccccc4)nc3s2)CC1` (stereo not drawn), for which the IC90 is 0.247 µM. In addition, the pIC50 (FFLUC_HILL_SLOPE 1.59, FFLUC_R_SQUARED 0.907, PBLUC_HILL_SLOPE 0.891, PBLUC_R_SQUARED 0.938, read-out: LUCIFERASE INFECTION ASSAY - IC50) was 7.68.
As for `COCCCNc1nccn2c(-c3ccccc3OC)cnc12`, the concentration for an effect of 90% (IC90) is 5 µM. Where the note is “FFLUC_HILL_SLOPE 1.63, FFLUC_R_SQUARED 0.685, HEPG2TOX_HILL_SLOPE 3.12, HEPG2TOX_R_SQUARED 0.689, PBLUC_HILL_SLOPE 1.97, PBLUC_R_SQUARED 0.68, read-out: LUCIFERASE INFECTION ASSAY - IC50”, the pIC50 is 5.79.
Regarding `Cc1cc(O)cc2c1C(=O)/C(=C/c1ccccc1F)O2`, the 90% effect concentration (IC90) was 11.8 µM. Moreover, the pIC50 (FFLUC_HILL_SLOPE 1.55, FFLUC_R_SQUARED 0.688, HEPG2TOX_HILL_SLOPE 12, HEPG2TOX_R_SQUARED 0.541, PBLUC_HILL_SLOPE 35.8, PBLUC_R_SQUARED 0.416, read-out: LUCIFERASE INFECTION ASSAY - IC50) is 4.95.
`COc1ccc(C(C)(C)C)cc1NC(=O)COC(=O)c1c(-c2ccccc2)csc1NC(=O)C=C(C)C`: the IC90 is 8.12 µM. Further, where the note is “FFLUC_HILL_SLOPE 1.58, FFLUC_R_SQUARED 0.454, PBLUC_HILL_SLOPE 2.65, PBLUC_R_SQUARED 0.35, read-out: LUCIFERASE INFECTION ASSAY - IC50”, the negative logarithm of the IC50 (pIC50) was 5.45.
On to `N#C/C(=N\Nc1ccc(F)cc1)S(=O)(=O)c1ccc(Cl)cc1`, for which the IC90 is 4.33 µM. Moreover, the negative-log IC50 (pIC50) (FFLUC_HILL_SLOPE 1.6, FFLUC_R_SQUARED 0.662, HEPG2TOX_HILL_SLOPE 1.9, HEPG2TOX_R_SQUARED 0.994, PBLUC_HILL_SLOPE 9.61, PBLUC_R_SQUARED 0.336, read-out: LUCIFERASE INFECTION ASSAY - IC50) was 5.46.
`N#CC(C#N)=NNc1ccccc1Oc1ccc(Cl)cc1Cl`: the IC90 was over 9.96 µM. In addition, where the note is “FFLUC_HILL_SLOPE 1.54, FFLUC_R_SQUARED 0.588, HEPG2TOX_HILL_SLOPE 1.18, HEPG2TOX_R_SQUARED 0.604, read-out: LUCIFERASE INFECTION ASSAY - IC50”, the negative-log IC50 (pIC50) is under 5.00.
Consider `CCn1c(SCC(=O)N2N=C(c3ccco3)CC2c2ccco2)nc2ccsc2c1=O` (stereo not drawn), for which the IC90 was over 10 µM. In addition, the pIC50 (FFLUC_HILL_SLOPE 1.6, FFLUC_R_SQUARED 0.281, read-out: LUCIFERASE INFECTION ASSAY - IC50) was under 5.00.
Turning to `Cc1ccc(-n2c(N(C)C)nc(/C=C(\C#N)C(=O)NC(C)c3ccccc3)c2Cl)cc1` (stereo not drawn), the 90% effect concentration (IC90) is over 10 µM. Besides, the pIC50 (FFLUC_HILL_SLOPE 1.62, FFLUC_R_SQUARED 0.252, read-out: LUCIFERASE INFECTION ASSAY - IC50) was under 5.00.
Take `O=C1/C(=C\c2cccnc2)SC(=S)N1Cc1ccncc1`: the IC90 is over 10.5 µM. Further, where the note is “FFLUC_HILL_SLOPE 1.57, FFLUC_R_SQUARED 0.87, HEPG2TOX_HILL_SLOPE 6.45, HEPG2TOX_R_SQUARED 0.698, PBLUC_HILL_SLOPE 14.6, PBLUC_R_SQUARED 0.23, read-out: LUCIFERASE INFECTION ASSAY - IC50”, the pIC50 was 4.98.
Take `CC1(C)CCc2cc(/C=N/C(C#N)C(=N)C#N)ccc2O1` (stereo not drawn): the concentration for an effect of 90% (IC90) is over 11.8 µM. The pIC50 (FFLUC_HILL_SLOPE 1.61, FFLUC_R_SQUARED 0.207, read-out: LUCIFERASE INFECTION ASSAY - IC50) was under 4.93.
Turning to `COCC(C)n1c(C)cc(C(=O)CN2C(=O)c3ccccc3S2(=O)=O)c1C` (stereo not drawn), the concentration for an effect of 90% (IC90) is over 10 µM. In addition, the pIC50 (FFLUC_HILL_SLOPE 1.61, FFLUC_R_SQUARED 0.328, read-out: LUCIFERASE INFECTION ASSAY - IC50) was under 5.00.
`CC(OC(=O)c1c2c(nc3ccccc13)/C(=C/c1cccs1)CCC2)C(=O)Nc1ccccc1C#N` (stereo not drawn): the IC90 is 3.58 µM. Also, the pIC50 (FFLUC_HILL_SLOPE 1.58, FFLUC_R_SQUARED 0.34, HEPG2TOX_HILL_SLOPE 8.31, HEPG2TOX_R_SQUARED 0.803, PBLUC_HILL_SLOPE 17.4, PBLUC_R_SQUARED 0.614, read-out: LUCIFERASE INFECTION ASSAY - IC50) is 5.50.
As for `Cc1ccc(N2C(=O)c3ccccc3C(C=NNC(=O)c3ccc(CSc4ccc(Cl)cc4)cc3)C2=O)cc1C` (stereo not drawn), the 90% effect concentration (IC90) was over 10 µM. Further, the pIC50 (FFLUC_HILL_SLOPE 1.61, FFLUC_R_SQUARED 0.665, HEPG2TOX_HILL_SLOPE 1.11, HEPG2TOX_R_SQUARED 0.878, read-out: LUCIFERASE INFECTION ASSAY - IC50) is under 5.00.
As for `FC(F)(F)c1ccc(N/N=C/c2sc(N3CCOCC3)nc2-c2ccccc2)c(Cl)c1`, the IC90 is over 10 µM. In addition, the negative-log IC50 (pIC50) (FFLUC_HILL_SLOPE 1.6, FFLUC_R_SQUARED 0.81, read-out: LUCIFERASE INFECTION ASSAY - IC50) was under 5.00.
As for `CC(C)n1ncc2c(C(=O)Nc3sccc3C#N)cc(C3CC3)nc21`, the concentration for an effect of 90% (IC90) is over 10 µM. Also, the pIC50 (FFLUC_HILL_SLOPE 1.6, FFLUC_R_SQUARED 0.58, HEPG2TOX_HILL_SLOPE 1.47, HEPG2TOX_R_SQUARED 0.871, PBLUC_HILL_SLOPE 3.01, PBLUC_R_SQUARED 0.133, read-out: LUCIFERASE INFECTION ASSAY - IC50) was 5.26.
In the case of `O=C(c1cnc2cc3c(cc2c1)OCCCO3)c1ccccc1O`, the concentration for an effect of 90% (IC90) turned out to be 5.25 µM. The negative logarithm of the IC50 (pIC50) (FFLUC_HILL_SLOPE 1.6, FFLUC_R_SQUARED 0.767, HEPG2TOX_HILL_SLOPE 8.36, HEPG2TOX_R_SQUARED 0.65, PBLUC_HILL_SLOPE 1.47, PBLUC_R_SQUARED 0.802, read-out: LUCIFERASE INFECTION ASSAY - IC50) is 5.93.
As for `CCN(c1ccc(-c2csc(Nc3ccc4c(c3)OCCO4)n2)cc1)S(C)(=O)=O`, the IC90 was found to be 5.7 µM. Moreover, where the note is “FFLUC_HILL_SLOPE 1.56, FFLUC_R_SQUARED 0.608, HEPG2TOX_HILL_SLOPE 4.65, HEPG2TOX_R_SQUARED 0.413, PBLUC_HILL_SLOPE 3.4, PBLUC_R_SQUARED 0.614, read-out: LUCIFERASE INFECTION ASSAY - IC50”, the pIC50 is 5.52.
`CC(C)CCOc1ccc(C(C2C(=O)CC(C)(C)CC2=O)C2C(=O)CC(C)(C)CC2=O)cc1`: the IC90 is over 10 µM. For the same compound, the pIC50 (FFLUC_HILL_SLOPE 1.63, FFLUC_R_SQUARED 0.537, read-out: LUCIFERASE INFECTION ASSAY - IC50) was under 5.00.
As to `Cc1c(C)n(CCCO)c2ncn3nc(-c4ccc(F)cc4)nc3c12`, the concentration for an effect of 90% (IC90) is 5.99 µM. The pIC50 (FFLUC_HILL_SLOPE 1.57, FFLUC_R_SQUARED 0.582, PBLUC_HILL_SLOPE 0.753, PBLUC_R_SQUARED 0.936, read-out: LUCIFERASE INFECTION ASSAY - IC50) was 6.49.
With `CC(=O)N(c1nc(/C=C2\CCOc3ccc(F)cc3C2=O)cs1)c1cccc(C)c1C`, the IC90 is over 10 µM. The negative-log IC50 (pIC50) (FFLUC_HILL_SLOPE 1.6, FFLUC_R_SQUARED 0.338, PBLUC_HILL_SLOPE 1.6, PBLUC_R_SQUARED 0.162, read-out: LUCIFERASE INFECTION ASSAY - IC50) was under 5.00.
As for `COc1ccc2[nH]cc(CCNC(=O)c3ccc(-c4cccc(NC(C)=O)c4)nc3NCc3cccnc3)c2c1`, the IC90 was 5.13 µM. Moreover, for the setting “FFLUC_HILL_SLOPE 1.54, FFLUC_R_SQUARED 0.292, HEPG2TOX_HILL_SLOPE 0.912, HEPG2TOX_R_SQUARED 0.95, PBLUC_HILL_SLOPE 1.88, PBLUC_R_SQUARED 0.271, read-out: LUCIFERASE INFECTION ASSAY - IC50”, the pIC50 is 5.80.
Turning to `c1ccc(-c2cn3nc(N4CCN(Cc5cn6ccccc6n5)CC4)sc3n2)cc1`, the concentration for an effect of 90% (IC90) is 6.12 µM. Also, for the setting “FFLUC_HILL_SLOPE 1.63, FFLUC_R_SQUARED 0.146, PBLUC_HILL_SLOPE 1.5, PBLUC_R_SQUARED 0.683, read-out: LUCIFERASE INFECTION ASSAY - IC50”, the negative-log IC50 (pIC50) was 5.85.
On to `CCCCCC1/C(=N\O)CC(c2ccccc2)N(C)C1c1ccccc1` (stereo not drawn), for which the concentration for an effect of 90% (IC90) is over 9.42 µM. In addition, for the setting “FFLUC_HILL_SLOPE 1.59, FFLUC_R_SQUARED 0.859, read-out: LUCIFERASE INFECTION ASSAY - IC50”, the pIC50 is under 5.03.
